Values of other authors, collected in patent publication US20090182041A1, “CONTROL OF CANCER WITH ANNONACEOUS EXTRACTS” (NATURE'S SUNSHINE PRODUCTS, INC., priority 2002, published 2009).

Tests used:
[1] = tested on: NADH oxidase found in the plasma membranes of tumor cells; conditions: substantially purified form
[2] = tested on: mitochondrial complex I (NADH: ubiquinone oxidoreductase); conditions: substantially purified form

Compound | inhibition of NADH oxidase in the plasma membranes of tumor cells [1] | inhibition of complex I in the electron transport system in mitochondria [2]
asimicin | inhibit | most powerful inhibitors known
CCCCCCCCCC[C@@H](O)[C@H]1CC[C@@H]([C@H]2CC[C@H]([C@H](O)CCCCCCCCCC[C@@H](O)CC3=C[C@H](C)OC3=O)O2)O1 [trilobacin] | inhibit | most powerful inhibitors known
bullatacin | inhibit | most powerful inhibitors known
